Activity calls are given as the source filed them.
Experiments:
[1] = molecular target: T1, Small ubiquitin-related modifier 1 (Homo sapiens, UniProt P63165); assay: inhibitors of SUMO1 peptide binding, dose response, biochemical, fluorescence polarization, uHTS hits (AID 624382); assay type: functional; conditions: read-out: IC50_Mean
[2] = molecular target: T1, Small ubiquitin-related modifier 1; assay: inhibitors of SUMO1 partner interactions, dose response, biochemical, FRET (AID 624383); assay type: functional; conditions: read-out: IC50_Mean
Estrogen receptor beta = Estrogen receptor beta (Homo sapiens, UniProt Q92731); assay: ERβ–SRC-3 coactivator interaction inhibitors, confirmation, orthogonal assay, biochemical, ELISA, streptavidin-HRP readout (AID 1060)
Estrogen receptor beta, sequence (Q92731 whole entry): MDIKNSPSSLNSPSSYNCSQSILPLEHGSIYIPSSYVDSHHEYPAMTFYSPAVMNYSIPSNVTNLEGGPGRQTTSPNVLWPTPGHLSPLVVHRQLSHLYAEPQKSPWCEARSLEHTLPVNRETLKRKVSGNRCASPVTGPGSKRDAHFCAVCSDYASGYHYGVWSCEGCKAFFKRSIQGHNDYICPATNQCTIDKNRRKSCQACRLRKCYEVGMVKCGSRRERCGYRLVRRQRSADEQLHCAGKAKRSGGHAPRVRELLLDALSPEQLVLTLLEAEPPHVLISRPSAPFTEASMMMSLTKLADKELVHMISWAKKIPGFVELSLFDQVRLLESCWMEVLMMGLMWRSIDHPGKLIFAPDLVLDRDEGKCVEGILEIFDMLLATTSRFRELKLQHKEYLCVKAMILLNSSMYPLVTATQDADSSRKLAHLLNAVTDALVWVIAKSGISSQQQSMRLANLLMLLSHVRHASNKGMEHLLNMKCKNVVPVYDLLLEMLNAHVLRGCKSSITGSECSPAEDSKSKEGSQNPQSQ

Estrogen receptor = molecular target: T2, Estrogen receptor (Homo sapiens, UniProt P03372);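 further: potency for inhibiting coactivator peptide recruitment to the receptor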
T2 sequence (P03372 whole entry): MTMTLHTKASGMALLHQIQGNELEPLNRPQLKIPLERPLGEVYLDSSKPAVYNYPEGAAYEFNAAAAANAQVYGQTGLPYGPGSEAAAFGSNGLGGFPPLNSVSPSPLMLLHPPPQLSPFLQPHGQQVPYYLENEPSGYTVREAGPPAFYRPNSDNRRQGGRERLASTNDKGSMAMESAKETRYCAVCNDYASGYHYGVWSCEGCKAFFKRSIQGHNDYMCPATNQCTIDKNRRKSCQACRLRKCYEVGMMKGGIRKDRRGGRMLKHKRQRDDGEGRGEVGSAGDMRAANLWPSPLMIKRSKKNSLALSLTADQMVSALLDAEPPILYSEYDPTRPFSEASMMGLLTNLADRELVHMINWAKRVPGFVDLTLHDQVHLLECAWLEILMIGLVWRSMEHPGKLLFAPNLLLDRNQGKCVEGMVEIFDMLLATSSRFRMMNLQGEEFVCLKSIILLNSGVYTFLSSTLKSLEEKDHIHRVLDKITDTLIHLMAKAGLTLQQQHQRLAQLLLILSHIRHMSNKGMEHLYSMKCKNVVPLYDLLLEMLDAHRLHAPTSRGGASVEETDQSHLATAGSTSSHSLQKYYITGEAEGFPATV

[3] = molecular target: T3, Carboxy-terminal domain RNA polymerase II polypeptide A small phosphatase 1 (Homo sapiens, UniProt Q9GZU7); assay: inhibitors of CTDSP1, concentration-response testing, biochemical assay, absorbance-based, actives from ultra-high-throughput screening (AID 540297); assay type: functional
T3 sequence (Q9GZU7 whole entry): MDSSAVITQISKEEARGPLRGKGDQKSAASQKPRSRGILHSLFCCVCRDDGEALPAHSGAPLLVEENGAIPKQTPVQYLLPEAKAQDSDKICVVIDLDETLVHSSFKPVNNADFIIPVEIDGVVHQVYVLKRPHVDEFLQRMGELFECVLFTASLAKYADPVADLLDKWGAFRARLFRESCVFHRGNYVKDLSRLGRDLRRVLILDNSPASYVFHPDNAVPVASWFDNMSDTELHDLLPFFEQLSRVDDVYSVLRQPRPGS

[4] = molecular target: Voltage-dependent T-type calcium channel subunit alpha-1H (Homo sapiens, UniProt O95180); assay type: functional;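 further: channel activity triggered by adding a high calcium stimulation buffer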
Voltage-dependent T-type calcium channel subunit alpha-1H, sequence (O95180 whole entry): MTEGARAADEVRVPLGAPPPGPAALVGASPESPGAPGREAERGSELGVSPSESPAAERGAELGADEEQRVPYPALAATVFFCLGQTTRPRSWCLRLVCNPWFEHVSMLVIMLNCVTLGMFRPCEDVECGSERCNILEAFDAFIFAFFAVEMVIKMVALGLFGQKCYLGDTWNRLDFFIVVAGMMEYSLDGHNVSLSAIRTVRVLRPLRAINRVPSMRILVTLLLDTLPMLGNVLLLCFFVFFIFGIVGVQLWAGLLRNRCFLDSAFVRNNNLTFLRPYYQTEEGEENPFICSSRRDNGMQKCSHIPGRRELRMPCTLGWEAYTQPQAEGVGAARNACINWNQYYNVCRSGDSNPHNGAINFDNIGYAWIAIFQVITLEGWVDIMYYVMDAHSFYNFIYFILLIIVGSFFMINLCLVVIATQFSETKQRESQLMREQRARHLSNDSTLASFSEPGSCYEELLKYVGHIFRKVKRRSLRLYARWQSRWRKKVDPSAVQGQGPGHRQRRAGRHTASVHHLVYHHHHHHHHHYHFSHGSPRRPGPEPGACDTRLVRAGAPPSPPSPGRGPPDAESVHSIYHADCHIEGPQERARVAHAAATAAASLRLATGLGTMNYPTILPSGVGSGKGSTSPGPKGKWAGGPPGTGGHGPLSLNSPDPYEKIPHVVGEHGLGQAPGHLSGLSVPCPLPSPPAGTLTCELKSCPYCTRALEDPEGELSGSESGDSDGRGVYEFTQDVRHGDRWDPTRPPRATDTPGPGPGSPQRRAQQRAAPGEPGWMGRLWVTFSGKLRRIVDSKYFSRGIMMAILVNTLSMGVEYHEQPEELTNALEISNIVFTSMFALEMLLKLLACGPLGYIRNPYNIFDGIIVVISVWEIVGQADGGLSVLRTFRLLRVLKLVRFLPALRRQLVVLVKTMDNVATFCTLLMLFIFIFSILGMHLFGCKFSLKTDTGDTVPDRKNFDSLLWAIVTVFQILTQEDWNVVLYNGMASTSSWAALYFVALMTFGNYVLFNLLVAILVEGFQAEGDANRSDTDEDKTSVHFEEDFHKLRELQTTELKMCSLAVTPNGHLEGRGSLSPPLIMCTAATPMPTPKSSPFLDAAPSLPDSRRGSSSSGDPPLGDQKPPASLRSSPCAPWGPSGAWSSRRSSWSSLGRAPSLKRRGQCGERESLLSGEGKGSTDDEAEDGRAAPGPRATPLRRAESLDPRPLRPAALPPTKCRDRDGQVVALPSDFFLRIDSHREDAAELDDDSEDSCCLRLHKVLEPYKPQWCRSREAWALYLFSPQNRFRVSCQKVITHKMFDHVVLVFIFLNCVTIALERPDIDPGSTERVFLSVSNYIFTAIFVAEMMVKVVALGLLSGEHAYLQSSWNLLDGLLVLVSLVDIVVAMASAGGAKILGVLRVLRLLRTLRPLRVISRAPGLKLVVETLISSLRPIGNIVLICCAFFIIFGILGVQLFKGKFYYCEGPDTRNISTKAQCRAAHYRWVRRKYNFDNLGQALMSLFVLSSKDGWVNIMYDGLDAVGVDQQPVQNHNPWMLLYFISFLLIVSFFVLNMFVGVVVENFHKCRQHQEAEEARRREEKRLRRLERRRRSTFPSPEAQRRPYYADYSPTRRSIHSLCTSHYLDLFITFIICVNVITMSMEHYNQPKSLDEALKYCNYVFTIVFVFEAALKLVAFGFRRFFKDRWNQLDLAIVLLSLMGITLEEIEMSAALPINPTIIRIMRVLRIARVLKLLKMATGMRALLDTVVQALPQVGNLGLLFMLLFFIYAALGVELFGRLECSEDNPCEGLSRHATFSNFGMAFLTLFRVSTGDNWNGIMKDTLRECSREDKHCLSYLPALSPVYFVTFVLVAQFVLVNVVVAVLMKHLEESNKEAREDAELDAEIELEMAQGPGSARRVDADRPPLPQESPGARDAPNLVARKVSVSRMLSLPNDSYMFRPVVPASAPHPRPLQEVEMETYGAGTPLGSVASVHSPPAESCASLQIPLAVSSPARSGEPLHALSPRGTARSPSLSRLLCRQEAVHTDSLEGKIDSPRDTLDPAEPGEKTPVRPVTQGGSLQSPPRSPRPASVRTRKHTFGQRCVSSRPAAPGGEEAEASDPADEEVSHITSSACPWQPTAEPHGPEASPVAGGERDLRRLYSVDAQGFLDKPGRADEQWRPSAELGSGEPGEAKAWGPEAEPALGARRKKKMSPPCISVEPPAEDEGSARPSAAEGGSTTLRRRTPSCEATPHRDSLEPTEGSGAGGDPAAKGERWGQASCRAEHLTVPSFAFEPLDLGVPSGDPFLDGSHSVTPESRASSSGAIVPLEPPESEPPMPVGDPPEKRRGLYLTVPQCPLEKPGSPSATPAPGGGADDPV

[5] = P. falciparum Dd2 growth inhibitors, dose response, SYBR Green, cherry-picked samples (AID 1159567); assay type: functional, cell-based
[6] = HepG2 cell cytotoxicity, dose response, cytotoxicity control, cherry-picked samples (AID 1159577); assay type: functional, cell-based
[7] = LGR2 antagonists, dose response, cell-based, HEK293, CRE-luciferase reporter, cherry pick, set 2 (AID 743343); assay type: functional;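 further: transfected cells were stimulated with diluted bursicon conditioned medium after compound addition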
[8] = MC4R antagonists, dose response, counter-screen for LGR2 antagonist project, cell-based, plate reader, cherry pick (AID 743444); assay type: functional;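 further: transfected HEK 293 cells stimulated with alpha-MSH peptide; potency of inhibitors of the alpha-MSH evoked signal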
[9] = HEK293 cell cytotoxicity, dose response, cytotoxicity control, plate reader, cherry-picked samples (AID 743446); assay type: functional, cell-based
Mu-type opioid receptor = Mu-type opioid receptor (Homo sapiens, UniProt P35372); assay type: functional, cell-based;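 further: U2OS cells with beta-arrestin recruitment to OPRM1 by beta-gal complementation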
Mu-type opioid receptor, sequence (P35372 whole entry): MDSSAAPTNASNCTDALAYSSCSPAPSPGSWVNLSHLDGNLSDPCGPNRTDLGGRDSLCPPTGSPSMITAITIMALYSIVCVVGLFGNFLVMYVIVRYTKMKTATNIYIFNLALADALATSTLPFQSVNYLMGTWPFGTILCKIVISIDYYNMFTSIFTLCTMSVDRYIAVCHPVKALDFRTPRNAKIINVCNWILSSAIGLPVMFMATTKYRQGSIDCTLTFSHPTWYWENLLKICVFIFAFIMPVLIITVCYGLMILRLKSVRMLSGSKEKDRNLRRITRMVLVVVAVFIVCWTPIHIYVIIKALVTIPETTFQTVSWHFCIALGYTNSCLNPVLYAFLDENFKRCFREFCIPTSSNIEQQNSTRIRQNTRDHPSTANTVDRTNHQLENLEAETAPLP

[10] = molecular target: 5-hydroxytryptamine receptor 2A (Mus musculus, UniProt P35363); assay type: functional, cell-based;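 further: CHO-K1 cells with tagged receptor and beta-arrestin; agonist potency measured as compound-induced activation of the receptor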
5-hydroxytryptamine receptor 2A, sequence (P35363 whole entry): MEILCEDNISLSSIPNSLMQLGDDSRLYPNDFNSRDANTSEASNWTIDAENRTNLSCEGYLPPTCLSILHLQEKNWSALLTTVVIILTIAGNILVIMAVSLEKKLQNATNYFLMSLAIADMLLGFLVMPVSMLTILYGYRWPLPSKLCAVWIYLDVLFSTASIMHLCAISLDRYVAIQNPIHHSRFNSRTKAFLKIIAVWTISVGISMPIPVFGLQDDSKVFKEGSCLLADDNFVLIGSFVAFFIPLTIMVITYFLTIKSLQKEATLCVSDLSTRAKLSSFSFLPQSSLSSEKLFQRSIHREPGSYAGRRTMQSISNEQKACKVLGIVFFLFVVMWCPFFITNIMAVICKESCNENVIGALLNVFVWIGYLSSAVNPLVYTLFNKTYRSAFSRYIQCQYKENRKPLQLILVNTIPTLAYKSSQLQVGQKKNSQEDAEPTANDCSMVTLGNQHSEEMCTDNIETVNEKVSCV

[11] = molecular target: Intestinal-type alkaline phosphatase (Mus musculus, UniProt P24822); assay: PubChem AID 488785; assay type: functional
Intestinal-type alkaline phosphatase (Mus musculus, UniProt P24822), sequence (P24822 whole entry): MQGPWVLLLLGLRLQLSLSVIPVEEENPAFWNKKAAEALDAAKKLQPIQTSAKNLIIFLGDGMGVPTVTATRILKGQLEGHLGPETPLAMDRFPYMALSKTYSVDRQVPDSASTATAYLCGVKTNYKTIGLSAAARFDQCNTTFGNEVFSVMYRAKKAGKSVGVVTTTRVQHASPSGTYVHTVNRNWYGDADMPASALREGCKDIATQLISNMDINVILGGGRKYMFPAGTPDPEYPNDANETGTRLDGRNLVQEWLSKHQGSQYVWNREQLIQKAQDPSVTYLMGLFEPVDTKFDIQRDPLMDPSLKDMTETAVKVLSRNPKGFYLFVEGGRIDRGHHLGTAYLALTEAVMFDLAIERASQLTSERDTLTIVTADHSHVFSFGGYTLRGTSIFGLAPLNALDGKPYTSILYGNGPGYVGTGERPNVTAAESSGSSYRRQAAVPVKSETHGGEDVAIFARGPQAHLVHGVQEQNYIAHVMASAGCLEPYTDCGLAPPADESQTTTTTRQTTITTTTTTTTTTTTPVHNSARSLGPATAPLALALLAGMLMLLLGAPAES

[12] = molecular target: T4, Alkaline phosphatase, tissue-nonspecific isozyme (Homo sapiens, UniProt P05186); assay: TNAP enzyme inhibition by screening hits, dose response, selectivity assay for mouse IAP inhibitor project, biochemical, human TNAP, uHTS hits (AID 488906); assay type: functional
T4 sequence (P05186 whole entry): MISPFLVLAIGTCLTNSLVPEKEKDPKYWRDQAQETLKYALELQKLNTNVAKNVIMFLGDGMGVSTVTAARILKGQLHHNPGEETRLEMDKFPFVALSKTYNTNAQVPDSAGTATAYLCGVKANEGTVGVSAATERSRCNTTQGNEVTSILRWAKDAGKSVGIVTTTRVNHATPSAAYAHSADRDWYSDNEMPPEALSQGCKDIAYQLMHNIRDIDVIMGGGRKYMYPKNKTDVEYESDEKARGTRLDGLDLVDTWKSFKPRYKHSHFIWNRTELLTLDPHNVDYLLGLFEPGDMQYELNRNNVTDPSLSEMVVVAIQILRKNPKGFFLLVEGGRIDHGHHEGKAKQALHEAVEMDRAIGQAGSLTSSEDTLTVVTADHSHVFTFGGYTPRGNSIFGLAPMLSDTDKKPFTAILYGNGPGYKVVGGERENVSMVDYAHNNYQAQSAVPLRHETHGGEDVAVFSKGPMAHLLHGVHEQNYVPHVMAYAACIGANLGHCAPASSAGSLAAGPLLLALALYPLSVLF

[13] = molecular target: Intestinal-type alkaline phosphatase (Homo sapiens, UniProt P09923); assay: activation of human intestinal alkaline phosphatase – biochemical, dose response (AID 488873); assay type: functional
Intestinal-type alkaline phosphatase (Homo sapiens, UniProt P09923), sequence (P09923 whole entry): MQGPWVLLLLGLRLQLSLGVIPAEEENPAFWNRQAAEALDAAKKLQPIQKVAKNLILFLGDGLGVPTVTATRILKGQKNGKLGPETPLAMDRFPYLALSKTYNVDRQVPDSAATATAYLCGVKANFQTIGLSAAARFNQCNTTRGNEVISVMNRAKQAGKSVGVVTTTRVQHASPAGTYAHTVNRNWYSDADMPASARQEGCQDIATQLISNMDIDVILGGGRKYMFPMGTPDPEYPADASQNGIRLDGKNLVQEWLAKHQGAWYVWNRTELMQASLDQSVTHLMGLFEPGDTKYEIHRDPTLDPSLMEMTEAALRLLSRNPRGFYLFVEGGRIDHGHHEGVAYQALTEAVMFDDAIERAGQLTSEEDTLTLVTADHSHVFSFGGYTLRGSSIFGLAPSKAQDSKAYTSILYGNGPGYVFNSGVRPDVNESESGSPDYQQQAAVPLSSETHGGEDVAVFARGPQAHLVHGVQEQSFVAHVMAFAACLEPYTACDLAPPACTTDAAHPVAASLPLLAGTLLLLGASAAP

HEK293 [14] = assay: NOD2 signaling inhibitors in MDP-stimulated cells, cell-based, uHTS, luminescence (AID 2001); assay type: functional; conditions: Homo sapiens
HEK293 [15] = assay: NOD1 signaling inhibitors, primary screen, cell-based, luminescence, uHTS (AID 1578); assay type: functional; conditions: Homo sapiens
HEK293 [16] = assay: cells; assay type: functional, cell-based; conditions: Homo sapiens
HEK293 [17] = assay: cells; assay type: functional, cell-based; conditions: Homo sapiens; remark: listed apart in the source
Vero = assay: cells; assay type: functional; conditions: Chlorocebus sabaeus
[18] = growth suppression of PTEN-null colon cells, dose response, cell-based, HCT116 PTEN knockout (AID 1047); assay type: functional;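 further: HCT116 colon tumor cells with PTEN knocked out; cells exposed to compound for 60 hours before readout; potency for loss of cell viability measured by luminescence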
[19] = growth suppression of beta-catenin-knockout colon cells, dose response, cell-based, HCT116, human colon tumor (AID 1045); assay type: functional;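 further: HCT116 colon tumor cells with beta catenin knocked out; cells exposed to compound for 60 hours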
INS1 = assay: beta cell apoptosis inhibitors, cytokine rescue, dose response, luminescence, retest (AID 449756); assay type: functional, cell-based; conditions: Rattus norvegicus;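 further: cell death triggered by IL-1 beta plus TNF-alpha plus IFN-gamma mixture; protective hits raise ATP signal compared with cytokine alone wells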
[20] = inhibitors of SNCA 5'UTR-driven reporter translation, confirmation, H4 neuroglioma cells, luminescence (AID 1988); assay type: functional, cell-based
[21] = Luminescence Cell-Based Dose Response HTS to Identify Inhibitors of 5'UTR Stem-Loop Driven Prion Protein mRNA Translation in H4 Neuroglioblastoma Cells. [Related pubchem assays: 1827 (Project Summary), 1813 (Primary HTS)]; assay type: functional
[22] = inhibitors of firefly luciferase expression or activity, dose response, H4 neuroglioma cells, luminescence (AID 1990); assay type: functional, cell-based
[23] = Luminescence Cell-Based Dose Retest to Confirm Inhibitors of Cancer Stem Cells. [Related pubchem assays (depositor defined):AID2717, AID2721]; assay type: functional, Homo sapiens; conditions: Homo sapiens

T1 sequence (P63165 whole entry): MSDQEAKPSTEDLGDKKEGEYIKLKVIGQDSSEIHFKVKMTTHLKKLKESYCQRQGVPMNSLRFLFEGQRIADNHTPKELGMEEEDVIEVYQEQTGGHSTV

O=C(COC(=O)c1ccc(Cl)c(S(=O)(=O)N2CCOCC2)c1)Nc1ccc2[nH]c(O)nc2c1
IC50 [1]: > 66.6 µM (inactive) | IC50 [2]: 15.8 µM (active)

O=C(c1ccc(CS(=O)(=O)c2ccccc2)o1)N1CCC2(CC1)OCCO2
IC50 (Estrogen receptor beta): 4.05 µM (not active)

Cc1ccccc1CSCC(=O)NC(=O)NCc1ccco1
IC50 (Estrogen receptor): 9.27 µM (active) | IC50 [3]: 10.4 µM (active)

COc1cccc(CNC(=O)CSCc2cnn(-c3ccccc3)c2-n2cccc2)c1
EC50 [4]: 3.66 µM (active)

Cc1ccc(S(=O)(=O)Nc2ccc3nc(-c4cccn4C)[nH]c3c2)cc1
EC50 [4]: 5.6 µM (active)

COc1ccccc1C#Cc1ccc([C@@H]2[C@@H](CO)N(C(=O)C3CCCC3)[C@H]2C#N)cc1
AC50 [5]: 4.57 µM (active) | AC50 [6]: > 39 µM (inactive)

CCn1c(CNc2ccc(Cl)cc2)nnc1SCC(=O)OC1CCCCC1
EC50 [4]: 2.56 µM (active)

Cn1cccc1C(=O)OCC(=O)Nc1ccc2c(c1)OCCO2
AC50 [7]: 11.3 µM (active) | AC50 [8]: 14.8 µM (active)

CN(c1ccccc1)S(=O)(=O)c1cccc(NC(=O)c2cc(=O)c3ccccc3o2)c1
AC50 [8]: 38.2 µM (active) | AC50 [9]: > 52 µM (inactive)

O=C(c1ccco1)N1CCN(Cc2ccccc2F)CC1
EC50 (Mu-type opioid receptor): 92.5 µM (inactive) | EC50 [10]: 7.48 µM (active)

COc1ccccc1CNC(=O)CCNS(=O)(=O)c1ccc2[nH]c(=O)oc2c1
IC50 [11]: 11.4 µM (active) | IC50 [12]: 27.5 µM (active) | EC50 [13]: 45.1 µM (active)

C=CCn1c(COc2cccc(C)c2)nnc1SCC(=O)NC(=O)NCc1ccco1
IC50 (Estrogen receptor): 14.8 µM (active)

O=C1C2CCCN2C(=O)N1CCCCN1CCN(c2ccccc2)CC1 (centres undefined)
EC50 (Mu-type opioid receptor): 92.4 µM (inactive) | EC50 [10]: 2.81 µM (active)

FC(F)(F)c1cc(C(F)(F)F)c2ccc(Oc3ccccc3)nc2n1
EC50 [4]: 4.65 µM (active)

CCOC(=O)[N-]c1cn(N2CCOCC2)n[o+]1 [MOLSIDOMINE]
IC50 (Estrogen receptor): 24.7 µM (active)

COC(=O)c1scc(S(=O)(=O)C(C)C)c1N/N=C(\C#N)C(=O)c1ccc(Cl)cc1
IC50 (HEK293 [14]): > 20 µM (inactive) | EC50 (HEK293 [15]): 2.17 µM (active) | IC50 (HEK293 [16]): > 20 µM (inactive) | IC50 (HEK293 [17]): > 20 µM (inactive)

COc1ccc(C#Cc2ccc([C@H]3[C@@H](CO)N4CCCCN(Cc5ccncc5)C[C@H]34)cc2)cc1
AC50 [5]: 1.87 µM (active) | AC50 [6]: 10.7 µM (active)

COc1ccc(NCc2nnc(SCC(=O)Nc3nc(-c4ccccc4)cs3)n2-c2ccccc2)cc1
CC50 (Vero): 8.35 µM (active) | EC50 [18]: 2.78 µM (active) | EC50 [19]: 2.54 µM (active) | AC50 (INS1): 6.62 µM (active)

CCCCCC(=O)N1C[C@H](O)[C@@H](n2cc(-c3ccc(F)cc3)nn2)C[C@@H]1c1ccc(Cl)cc1
CC50 (Vero): > 25 µM (active)

COc1ccc(CN2CCN(C(=O)c3ccco3)CC2)cc1
EC50 (Mu-type opioid receptor): 92.5 µM (inactive) | EC50 [10]: 1.53 µM (active)

Cc1cccc(OCC(O)CN2CCN(c3ccccn3)CC2)c1C (centres undefined)
EC50 [20]: > 120 µM (not active) | EC50 [21]: > 120 µM (not active) | EC50 (Mu-type opioid receptor): 92.5 µM (inactive) | EC50 [10]: 25.4 µM (inactive) | EC50 [22]: > 120 µM (not active)

Cc1cc(N2CCC(C(=O)Nc3ccc(F)cc3)CC2)nc(-c2ccccc2)n1
EC50 [4]: 4.26 µM (active)

O=C(O)c1cc(-c2ccco2)nn1-c1cccc(Cl)c1
IC50 [1]: > 66.6 µM (inactive) | IC50 [2]: 27.1 µM (inactive) | IC50 [3]: 5.39 µM (active)

Nc1ccccc1N/C=C1\C(=O)NC(=O)N(CCC2=CCCCC2)C1=O
IC50 (Estrogen receptor): > 50 µM (not active) | AC50 (INS1): 28.2 µM (active) | AC50 [23]: 81.2 µM (active)
